Measurements as given in paper PMC12728205, “The solute-binding proteins DppA1–5 of Pseudomonas aeruginosa have distinct substrate profiles” (Scientific Reports, 2025).
Peptide text beside a SMILES is read from it.

Target: T1, DppA1 (Pseudomonas aeruginosa, UniProt A0A0H2ZGV2)
T1 construct: C-terminal TwinStrepTag, codon-optimized gene, periplasmic expression in E. coli BL21 (pET22b), StrepTrap purified
Test: differential scanning fluorimetry (SYPRO Orange)
Assay type: binding
Conditions: 10 µM protein, 250 µM peptide, PBS

T1 sequence (A0A0H2ZGV2 30-537): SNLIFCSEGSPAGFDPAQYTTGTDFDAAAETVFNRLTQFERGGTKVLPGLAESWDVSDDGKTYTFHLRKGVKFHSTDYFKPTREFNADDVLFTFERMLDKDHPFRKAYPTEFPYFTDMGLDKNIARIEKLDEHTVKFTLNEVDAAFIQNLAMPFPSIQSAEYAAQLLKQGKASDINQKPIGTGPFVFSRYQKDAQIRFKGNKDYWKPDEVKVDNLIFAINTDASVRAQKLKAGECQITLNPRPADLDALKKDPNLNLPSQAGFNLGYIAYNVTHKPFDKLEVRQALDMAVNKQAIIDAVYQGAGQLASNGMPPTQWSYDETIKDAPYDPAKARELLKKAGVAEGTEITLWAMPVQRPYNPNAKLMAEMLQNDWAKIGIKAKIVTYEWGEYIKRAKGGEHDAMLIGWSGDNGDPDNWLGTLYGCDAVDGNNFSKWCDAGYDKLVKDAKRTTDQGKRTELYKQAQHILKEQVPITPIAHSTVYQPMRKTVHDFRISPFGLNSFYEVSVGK

With C[C@H](N)C(=O)NCC(=O)O [Ala-Gly] (H-Ala-Gly-OH) the ΔTm was 8.6 °C.
